Experimental data taken from publication PMC5461819 (Peptides, 2015).
Where “and” joins values, the source holds several entries; their conditions need not be identical. Equal entries are not always repeated. Where two headings read alike, the source gives them in different places.

Key:
mouse GRPR [1] = biological target: T1, mouse GRPR (Mus musculus, UniProt P21729); test: [3H]Inositol phosphate generation, mGRPR/BALB cells; type: cell-based
mouse BRS-3 = biological target: T2, mouse BRS-3 (Mus musculus, UniProt O54798); test: [3H]Inositol phosphate generation, mBRS-3/BALB cells; type: cell-based
T2 sequence (O54798 1-399): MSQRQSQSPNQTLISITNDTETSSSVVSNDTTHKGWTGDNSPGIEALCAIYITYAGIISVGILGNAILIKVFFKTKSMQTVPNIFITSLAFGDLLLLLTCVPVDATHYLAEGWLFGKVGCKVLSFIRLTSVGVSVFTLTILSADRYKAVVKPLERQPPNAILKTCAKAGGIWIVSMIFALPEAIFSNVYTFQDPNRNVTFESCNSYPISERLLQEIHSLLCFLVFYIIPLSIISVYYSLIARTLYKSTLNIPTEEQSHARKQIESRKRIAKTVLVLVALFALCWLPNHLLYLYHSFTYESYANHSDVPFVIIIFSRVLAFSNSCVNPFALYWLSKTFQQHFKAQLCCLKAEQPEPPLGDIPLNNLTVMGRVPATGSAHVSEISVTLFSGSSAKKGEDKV

human BRS-3 [2] = biological target: T3, human BRS-3 (Homo sapiens, UniProt P32247); test: [3H]Inositol phosphate generation; type: cell-based
T3 sequence (P32247 1-399): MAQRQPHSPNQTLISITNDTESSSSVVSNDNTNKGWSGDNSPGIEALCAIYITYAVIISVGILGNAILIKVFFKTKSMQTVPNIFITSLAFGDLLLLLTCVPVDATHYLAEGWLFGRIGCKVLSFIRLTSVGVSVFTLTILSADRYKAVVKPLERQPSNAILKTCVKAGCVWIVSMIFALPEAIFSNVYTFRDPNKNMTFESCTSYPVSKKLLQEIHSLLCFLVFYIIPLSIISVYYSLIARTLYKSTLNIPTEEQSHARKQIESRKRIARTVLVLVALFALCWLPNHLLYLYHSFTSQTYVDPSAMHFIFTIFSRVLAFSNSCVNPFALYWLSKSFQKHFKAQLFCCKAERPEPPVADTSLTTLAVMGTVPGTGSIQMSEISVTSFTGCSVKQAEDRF

rat BRS-3 = biological target: T4, rat BRS-3 (Rattus norvegicus, UniProt Q8K418); test: [3H]Inositol phosphate generation, rBRS-3/BALB cells; type: cell-based
T4 sequence (Q8K418 1-399): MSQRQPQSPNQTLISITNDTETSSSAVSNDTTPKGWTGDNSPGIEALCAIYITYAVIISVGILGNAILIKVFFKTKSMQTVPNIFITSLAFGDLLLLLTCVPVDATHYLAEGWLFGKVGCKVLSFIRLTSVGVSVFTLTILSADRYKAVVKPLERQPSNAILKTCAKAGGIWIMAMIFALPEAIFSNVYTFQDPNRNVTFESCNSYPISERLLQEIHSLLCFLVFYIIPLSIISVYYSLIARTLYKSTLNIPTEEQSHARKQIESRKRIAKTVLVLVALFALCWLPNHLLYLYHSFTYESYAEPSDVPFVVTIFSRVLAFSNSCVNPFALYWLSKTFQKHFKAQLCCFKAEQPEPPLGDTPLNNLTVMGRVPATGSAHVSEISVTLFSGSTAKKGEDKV

human GRPR [3] = biological target: T5, human GRPR (Homo sapiens, UniProt P30550); test: [3H]Inositol phosphate generation, hGRPR/BALB cells; type: cell-based
T5 sequence (P30550 whole entry): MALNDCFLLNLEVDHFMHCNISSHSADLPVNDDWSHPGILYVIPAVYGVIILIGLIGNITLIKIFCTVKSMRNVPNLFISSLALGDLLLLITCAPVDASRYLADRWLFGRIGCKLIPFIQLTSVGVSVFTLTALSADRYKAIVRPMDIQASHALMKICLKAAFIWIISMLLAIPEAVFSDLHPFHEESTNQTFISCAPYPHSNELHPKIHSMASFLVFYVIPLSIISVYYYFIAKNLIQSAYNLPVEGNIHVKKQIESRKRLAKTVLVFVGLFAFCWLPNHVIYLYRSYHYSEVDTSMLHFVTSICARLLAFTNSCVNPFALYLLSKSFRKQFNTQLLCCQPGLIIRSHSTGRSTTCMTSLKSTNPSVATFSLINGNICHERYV

human NMBR [4] = biological target: T6, human NMBR (Homo sapiens, UniProt P28336); test: [3H]Inositol phosphate generation, hNMBR/BALB cells; type: cell-based; conditions: [3H]IP production, 60 min, 37°C
T6 sequence (P28336 whole entry): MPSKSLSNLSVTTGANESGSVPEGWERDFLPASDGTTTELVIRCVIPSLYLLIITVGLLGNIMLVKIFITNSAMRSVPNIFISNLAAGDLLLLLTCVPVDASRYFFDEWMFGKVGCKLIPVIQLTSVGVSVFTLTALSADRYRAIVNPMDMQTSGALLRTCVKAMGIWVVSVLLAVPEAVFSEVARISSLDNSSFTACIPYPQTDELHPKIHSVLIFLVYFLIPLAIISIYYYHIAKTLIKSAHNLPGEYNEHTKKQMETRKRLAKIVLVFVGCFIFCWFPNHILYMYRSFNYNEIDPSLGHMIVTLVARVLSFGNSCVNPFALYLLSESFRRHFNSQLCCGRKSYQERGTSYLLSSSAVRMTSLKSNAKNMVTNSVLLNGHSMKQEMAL

rat GRPR [5] = biological target: T7, rat GRPR (Rattus norvegicus, UniProt P52500); test: [3H]Inositol phosphate generation, rGRPR/AR42J cells; type: cell-based; conditions: [3H]IP production, 60 min, 37°C
T7 sequence (P52500 whole entry): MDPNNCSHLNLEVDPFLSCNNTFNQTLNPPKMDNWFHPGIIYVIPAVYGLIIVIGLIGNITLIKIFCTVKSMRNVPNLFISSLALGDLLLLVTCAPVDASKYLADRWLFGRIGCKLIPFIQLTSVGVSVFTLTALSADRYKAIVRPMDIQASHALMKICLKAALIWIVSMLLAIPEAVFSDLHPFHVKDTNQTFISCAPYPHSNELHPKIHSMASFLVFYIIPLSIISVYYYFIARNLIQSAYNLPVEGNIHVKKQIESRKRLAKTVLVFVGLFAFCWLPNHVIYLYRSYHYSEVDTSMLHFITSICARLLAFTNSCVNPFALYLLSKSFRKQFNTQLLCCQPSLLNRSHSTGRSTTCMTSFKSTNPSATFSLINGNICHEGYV

rat NMBR [6] = biological target: T8, rat NMBR (Rattus norvegicus, UniProt P24053); test: [3H]Inositol phosphate generation, rNMBR/BALB cells; type: cell-based; conditions: [3H]IP production, 60 min, 37°C
T8 sequence (P24053 1-390): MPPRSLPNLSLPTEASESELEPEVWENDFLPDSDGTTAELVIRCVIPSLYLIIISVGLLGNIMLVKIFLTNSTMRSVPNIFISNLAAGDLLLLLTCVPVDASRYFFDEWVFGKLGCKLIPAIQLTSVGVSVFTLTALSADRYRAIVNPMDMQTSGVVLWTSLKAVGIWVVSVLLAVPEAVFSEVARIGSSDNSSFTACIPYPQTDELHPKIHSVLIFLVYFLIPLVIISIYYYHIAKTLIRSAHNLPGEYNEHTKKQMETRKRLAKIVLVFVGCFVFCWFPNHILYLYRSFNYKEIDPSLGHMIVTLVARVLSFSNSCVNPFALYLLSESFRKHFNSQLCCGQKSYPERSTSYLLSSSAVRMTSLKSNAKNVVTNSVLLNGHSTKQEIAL

mouse NMBR [7] = biological target: T9, mouse NMBR (Mus musculus, UniProt O54799); test: [3H]Inositol phosphate generation, mNMBR/BALB cells; type: cell-based; conditions: [3H]IP production, 60 min, 37°C
T9 sequence (O54799 1-390): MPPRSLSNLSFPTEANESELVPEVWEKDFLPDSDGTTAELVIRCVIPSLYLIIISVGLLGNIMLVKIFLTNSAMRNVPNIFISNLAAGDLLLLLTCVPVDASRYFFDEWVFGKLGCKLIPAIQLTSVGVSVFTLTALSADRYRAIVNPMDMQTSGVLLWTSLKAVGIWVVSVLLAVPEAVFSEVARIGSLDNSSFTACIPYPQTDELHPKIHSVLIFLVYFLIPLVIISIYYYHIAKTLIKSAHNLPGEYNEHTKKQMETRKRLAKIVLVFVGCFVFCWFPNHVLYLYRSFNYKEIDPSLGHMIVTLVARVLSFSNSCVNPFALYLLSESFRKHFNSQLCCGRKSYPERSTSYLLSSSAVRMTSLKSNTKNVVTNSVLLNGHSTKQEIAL

human BRS-3 [8] = biological target: T3, human BRS-3; test: Binding studies, inhibition of 125I-[D-Tyr6,β-Ala11,Phe13,Nle14]Bn-
rat NMBR [9] = biological target: T8, rat NMBR; test: Binding studies, rNMBR/BALB cells
human GRPR [10] = biological target: T5, human GRPR; test: Binding studies, hGRPR/BALB cells
mouse GRPR [11] = biological target: T1, mouse GRPR; test: Binding studies, mGRPR/BALB cells
mouse NMBR [12] = biological target: T9, mouse NMBR; test: Binding studies, mNMBR/BALB cells
rat GRPR [13] = biological target: T7, rat GRPR; test: Binding studies, rGRPR/AR42J cells
human NMBR [14] = biological target: T6, human NMBR; test: Binding studies, hNMBR/BALB cells

T1 sequence (P21729 whole entry): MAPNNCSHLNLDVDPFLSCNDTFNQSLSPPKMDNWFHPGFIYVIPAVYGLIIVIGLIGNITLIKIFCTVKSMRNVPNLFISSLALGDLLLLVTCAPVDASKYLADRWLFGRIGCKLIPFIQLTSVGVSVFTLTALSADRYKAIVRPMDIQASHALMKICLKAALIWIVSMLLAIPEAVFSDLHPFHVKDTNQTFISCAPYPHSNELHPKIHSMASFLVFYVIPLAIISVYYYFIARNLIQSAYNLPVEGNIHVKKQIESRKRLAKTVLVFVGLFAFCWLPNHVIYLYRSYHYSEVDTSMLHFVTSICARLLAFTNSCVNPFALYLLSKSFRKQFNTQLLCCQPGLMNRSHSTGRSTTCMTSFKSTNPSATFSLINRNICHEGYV

SMILES: Cc1ccc(Oc2cccc(CC(=O)N3CCNc4nc(C(F)(F)F)ccc4[C@H]3CC(=O)O)c2)cn1 [9F, [(5R)-4-((3-[(6-methylpyridin-3-yl)oxy]phenyl)acetyl)-8-(trifluoromethyl)-2,3,4,5-tetrahydro-1H-pyrido[2,3-e][1, 4]diazepin-5-yl]acetic acid]
- EC50 (mouse GRPR [1]; read-out: EC50 Mouse GRPR mGRPR/BALB, [3H]IP production, 60 min, 37°C): > 3000 nM
- less potent than MK-5046 (mouse BRS-3; mBRS-3/BALB cells): 5 fold
- lower potency compared to 9D or 9G (mouse BRS-3; mBRS-3/BALB cells): 4.3 fold
- EC50 (mouse BRS-3; read-out: EC50 Mouse BRS-3 mBRS-3/BALB, [3H]IP production, 60 min, 37°C): 86.8 ± 0.8 nM
- lower potency than 9G or 9D (human BRS-3 [2]; hBRS-3/BALB cells): 4.3 fold
- EC50 (human BRS-3 [2]; read-out: EC50 Human BRS-3 hBRS-3/BALB, [3H]IP production, 60 min, 37°C): 39 nM
- EC50 (human BRS-3 [2]; read-out: EC50 Human BRS-3 hBRS-3/BALB, [3H]IP production, 60 min, 37°C, listed as 9 F): 39.6 ± 1 nM
- less potent than MK-5046 (rat BRS-3; rBRS-3/BALB cells): 8 fold
- lower potency than 9G and 3F (rat BRS-3; rBRS-3/BALB cells): 7.8 fold
- EC50 (rat BRS-3; read-out: EC50 Rat BRS-3 rBRS-3/BALB, [3H]IP production, 60 min, 37°C): 295 ± 0.5 nM
- EC50 (human GRPR [3]; read-out: EC50 Human GRPR hGRPR/BALB, [3H]IP production, 60 min, 37°C): > 3000 nM
- EC50 (human NMBR [4]; read-out: EC50 Human NMBR hNMBR/BALB): > 3000 nM
- EC50 (rat GRPR [5]; read-out: EC50 Rat GRPR rGRPR/AR42J): > 3000 nM
- EC50 (rat NMBR [6]; read-out: EC50 Rat NMBR rNMBR/BALB): > 3000 nM
- EC50 (mouse NMBR [7]; read-out: EC50 Mouse NMBR mNMBR/BALB): > 3000 nM
- lower affinity compared with 9G (human BRS-3 [8]; hBRS-3/BALB cells): 1.7-13 fold

SMILES: CSCC[C@H](NC(=O)[C@H](Cc1ccccc1)NC(=O)[C@H](Cc1c[nH]cn1)NC(=O)CNC(=O)[C@@H](NC(=O)[C@H](C)NC(=O)[C@H](Cc1c[nH]c2ccccc12)NC(=O)[C@H](CC(C)C)NC(=O)[C@H](CC(N)=O)NC(=O)CN)[C@@H](C)O)C(N)=O [NMB, neuromedin B]
- IC50 (rat NMBR [9]): 1.21 ± 0.15 nM
- EC50 (mouse GRPR [1]): 23 ± 8 nM
- IC50 (human GRPR [10]): 31.5 ± 2.4 nM
- EC50 (mouse BRS-3): > 3000 nM
- EC50 (human BRS-3 [2]): > 3000 nM
- EC50 (rat BRS-3): > 3000 nM
- IC50 (mouse GRPR [11]): 170 ± 5 nM
- EC50 (human GRPR [3]): 530 ± 23 nM
- EC50 (human NMBR [4]; EC50 Human NMBR hNMBR/BALB): 2.5 nM and 2.52 nM
- IC50 (mouse NMBR [12]): 0.6 ± 0.02 nM
- EC50 (rat GRPR [5]; EC50 Rat GRPR rGRPR/AR42J): 17 nM
- EC50 (rat NMBR [6]; EC50 Rat NMBR rNMBR/BALB): 1.6 nM and 1.59 nM
- EC50 (mouse NMBR [7]; EC50 Mouse NMBR mNMBR/BALB): 4.7 nM and 4.73 nM
- IC50 (rat GRPR [13]): 80 ± 5 nM
- lower affinity for rGRPR than for rNMBR (rat GRPR [13]; rat receptors): 66 fold
- IC50 (human NMBR [14]): 0.6 ± 0.02 nM
- IC50 (human BRS-3 [8]): > 3000 nM
